Data from US8680133B2, “Alkyl indole-3-carbinol-derived antitumor agents” (The Ohio State University Research Foundation, priority 2009, dated 2014).

Experiments:
[1] = test system: U251; assay: NCI60 screening, CNS Cancer, U251; assay type: cell-based, human
[2] = test system: A498; assay: NCI60 screening, Renal Cancer, A498; assay type: cell-based, human
[3] = test system: MDA-MB-435; assay: NCI60 screening, Melanoma, MDA-MB-435; assay type: cell-based, human
[4] = test system: UACC-257; assay: NCI60 screening, Melanoma, UACC-257; assay type: cell-based, human
[5] = test system: PC-3 xenograft tumor; assay: PC-3 xenograft tumor growth in nude mice, 450 ppm in the diet; assay type: in vivo; conditions: 450 ppm in AIN-76A rodent diet, vs control diet, P<0.05
Experimental: FIG. 3 provides a graph showing the in vivo efficacy of dietary OSU-A9M at 450 ppm in a rodent diet in suppressing PC-3 xenograft tumor growth in nude mice.
Given the increased potency of OSU-A9M compared to the other lead derivatives, an experimental diet was formulated. An AIN-76A rodent diet (American Institute of Nutrition; including primarily casein, sucrose, and corn starch) containing 450 ppm OSU-A9M was made to deliver approximately 50 mg/kg of drug per day to each mouse estimated by food consumption and body weight measurements.

[6] = test system: PC-3; assay: NCI60 screening, Prostate Cancer, PC-3; assay type: cell-based, human
[7] = test system: UACC-62; assay: NCI60 screening, Melanoma, UACC-62; assay type: cell-based, human
[8] = test system: OVCAR-5; assay: NCI60 screening, Ovarian Cancer, OVCAR-5; assay type: cell-based, human
[9] = test system: RXF 393; assay: NCI60 screening, Renal Cancer, RXF 393; assay type: cell-based, human
[10] = test system: SF-295; assay: NCI60 screening, CNS Cancer, SF-295; assay type: cell-based, human
[11] = test system: 786-0; assay: NCI60 screening, Renal Cancer, 786-0; assay type: cell-based, human
[12] = test system: NCI-H522; assay: NCI60 screening, Non-Small Cell Lung Cancer, NCI-H522; assay type: cell-based, human
[13] = test system: HS 578T; assay: NCI60 screening, Breast Cancer, HS 578T; assay type: cell-based, human
[14] = test system: RPMl-8226; assay: NCI60 screening, Leukemia, RPMl-8226; assay type: cell-based, human
[15] = test system: SK-MEL-2; assay: NCI60 screening, Melanoma, SK-MEL-2; assay type: cell-based, human
[16] = test system: ACHN; assay: NCI60 screening, Renal Cancer, ACHN; assay type: cell-based, human
[17] = test system: K-562; assay: NCI60 screening, Leukemia, K-562; assay type: cell-based, human
[18] = Homo sapiens, read-out: LC50 (the source's name)

Cc1ccc2c(c1)c(CO)cn2S(=O)(=O)c1ccc(Cl)c([N+](=O)[O-])c1 [OSU-A9M, [1-(4-chloro-3-nitro-benzenesulfonyl)-5-methyl-1H-indol-3-yl]-methanol]
TGI [1]: 2.91E−6 | GI50 ([1]; Homo sapiens, U-251): 1.57 µM | CC50 ([1]; Homo sapiens, U-251, read-out: LC50 (the source's name)): 5.4 µM | Percent Growth ([1]; Log10 Concentration −4.0): −100% | Percent Growth ([1]; Log10 Concentration −5.0): −100% | Percent Growth ([1]; Log10 Concentration −6.0): 87% | Percent Growth ([1]; Log10 Concentration −7.0): 87% | Percent Growth ([1]; Log10 Concentration −8.0): 90% | TGI [2]: 2.79E−6 | GI50 ([2]; Homo sapiens): 1.33 µM | CC50 [2, 18]: 5.87 µM | Percent Growth ([2]; Log10 Concentration −4.0): −100% | Percent Growth ([2]; Log10 Concentration −5.0): −86% | Percent Growth ([2]; Log10 Concentration −6.0): 69% | Percent Growth ([2]; Log10 Concentration −7.0): 62% | Percent Growth ([2]; Log10 Concentration −8.0): 75% | TGI [3]: 2.93E−6 | GI50 ([3]; Homo sapiens): 1.52 µM | LC50 (50% lethal concentration) ([3]; Homo sapiens): 5.64 µM | Percent Growth ([3]; Log10 Concentration −4.0): −92% | Percent Growth ([3]; Log10 Concentration −5.0): −94% | Percent Growth ([3]; Log10 Concentration −6.0): 82% | Percent Growth ([3]; Log10 Concentration −7.0): 87% | Percent Growth ([3]; Log10 Concentration −8.0): 95% | TGI [4]: 3.31E−6 | GI50 ([4]; Homo sapiens): 1.72 µM | CC50 [4, 18]: 6.4 µM | Percent Growth ([4]; Log10 Concentration −4.0): −96% | Percent Growth ([4]; Log10 Concentration −5.0): −84% | Percent Growth ([4]; Log10 Concentration −6.0): 91% | Percent Growth ([4]; Log10 Concentration −7.0): 94% | Percent Growth ([4]; Log10 Concentration −8.0): 96% | Suppression of the growth of PC-3 xenograft tumors [5]: 59.6% | TGI [6]: 4.32E−6 | GI50 ([6]; Homo sapiens): 1.62 µM | CC50 [6, 18]: 13.9 µM | Percent Growth ([6]; Log10 Concentration −4.0): −93% | Percent Growth ([6]; Log10 Concentration −5.0): −43% | Percent Growth ([6]; Log10 Concentration −6.0): 75% | Percent Growth ([6]; Log10 Concentration −7.0): 74% | Percent Growth ([6]; Log10 Concentration −8.0): 80% | TGI [7]: 3.19E−6 | GI50 ([7]; Homo sapiens): 1.67 µM | CC50 [7, 18]: 6.07 µM | Percent Growth ([7]; Log10 Concentration −4.0): −93% | Percent Growth ([7]; Log10 Concentration −5.0): −89% | Percent Growth ([7]; Log10 Concentration −6.0): 90% | Percent Growth ([7]; Log10 Concentration −7.0): 91% | Percent Growth ([7]; Log10 Concentration −8.0): 93% | TGI [8]: 3.04E−6 | GI50 ([8]; Homo sapiens): 1.68 µM | CC50 [8, 18]: 5.51 µM | Percent Growth ([8]; Log10 Concentration −4.0): −100% | Percent Growth ([8]; Log10 Concentration −5.0): −100% | Percent Growth ([8]; Log10 Concentration −6.0): 93% | Percent Growth ([8]; Log10 Concentration −7.0): 92% | Percent Growth ([8]; Log10 Concentration −8.0): 95% | TGI [9]: 4.10E−6 | GI50 ([9]; Homo sapiens): 1.94 µM | CC50 [9, 18]: 8.65 µM | Percent Growth ([9]; Log10 Concentration −4.0): −85% | Percent Growth ([9]; Log10 Concentration −5.0): −60% | Percent Growth ([9]; Log10 Concentration −6.0): 94% | Percent Growth ([9]; Log10 Concentration −7.0): 102% | Percent Growth ([9]; Log10 Concentration −8.0): 101% | TGI [10]: 3.07E−6 | GI50 ([10]; Homo sapiens): 1.62 µM | CC50 [10, 18]: 5.81 µM | Percent Growth ([10]; Log10 Concentration −4.0): −86% | Percent Growth ([10]; Log10 Concentration −5.0): −93% | Percent Growth ([10]; Log10 Concentration −6.0): 88% | Percent Growth ([10]; Log10 Concentration −7.0): 91% | Percent Growth ([10]; Log10 Concentration −8.0): 77% | TGI [11]: 3.22E−6 | GI50 ([11]; Homo sapiens): 1.78 µM | CC50 [11, 18]: 5.83 µM | Percent Growth ([11]; Log10 Concentration −4.0): −100% | Percent Growth ([11]; Log10 Concentration −5.0): −95% | Percent Growth ([11]; Log10 Concentration −6.0): 98% | Percent Growth ([11]; Log10 Concentration −7.0): 98% | Percent Growth ([11]; Log10 Concentration −8.0): 96% | TGI [12]: 3.54E−7 | GI50 ([12]; Homo sapiens): 0.145 µM | CC50 [12, 18]: 0.861 µM | Percent Growth ([12]; Log10 Concentration −4.0): −96% | Percent Growth ([12]; Log10 Concentration −5.0): −96% | Percent Growth ([12]; Log10 Concentration −6.0): −58% | Percent Growth ([12]; Log10 Concentration −7.0): 71% | Percent Growth ([12]; Log10 Concentration −8.0): 77% | TGI [13]: 3.05E−6 | GI50 ([13]; Homo sapiens): 1.02 µM | CC50 [13, 18]: 9.11 µM | Percent Growth ([13]; Log10 Concentration −4.0): −63% | Percent Growth ([13]; Log10 Concentration −5.0): −54% | Percent Growth ([13]; Log10 Concentration −6.0): 51% | Percent Growth ([13]; Log10 Concentration −7.0): 88% | Percent Growth ([13]; Log10 Concentration −8.0): 83% | TGI [14]: 3.80E−6 | GI50 ([14]; Homo sapiens): 1.58 µM | CC50 [14, 18]: 9.14 µM | Percent Growth ([14]; Log10 Concentration −4.0): −68% | Percent Growth ([14]; Log10 Concentration −5.0): −55% | Percent Growth ([14]; Log10 Concentration −6.0): 76% | Percent Growth ([14]; Log10 Concentration −7.0): 84% | Percent Growth ([14]; Log10 Concentration −8.0): 93% | TGI [15]: 3.04E−6 | GI50 ([15]; Homo sapiens): 1.6 µM | CC50 [15, 18]: 5.78 µM | Percent Growth ([15]; Log10 Concentration −4.0): −93% | Percent Growth ([15]; Log10 Concentration −5.0): −93% | Percent Growth ([15]; Log10 Concentration −6.0): 86% | Percent Growth ([15]; Log10 Concentration −7.0): 96% | Percent Growth ([15]; Log10 Concentration −8.0): 102% | TGI [16]: 3.14E−6 | GI50 ([16]; Homo sapiens): 1.76 µM | CC50 [16, 18]: 5.6 µM | Percent Growth ([16]; Log10 Concentration −4.0): −100% | Percent Growth ([16]; Log10 Concentration −5.0): −100% | Percent Growth ([16]; Log10 Concentration −6.0): 99% | Percent Growth ([16]; Log10 Concentration −7.0): 93% | Percent Growth ([16]; Log10 Concentration −8.0): 98% | TGI [17]: 3.03E−6 | GI50 ([17]; Homo sapiens, K562): 1.02 µM | CC50 ([17]; Homo sapiens, K562, read-out: LC50 (the source's name)): 8.96 µM | Percent Growth ([17]; Log10 Concentration −4.0): −70% | Percent Growth ([17]; Log10 Concentration −5.0): −55% | Percent Growth ([17]; Log10 Concentration −6.0): 51% | Percent Growth ([17]; Log10 Concentration −7.0): 106% | Percent Growth ([17]; Log10 Concentration −8.0): 98%
